Experimental data from patent EP4592286A1, “MACROCYCLIC NITROGEN-CONTAINING CROWN ETHER COMPOUND AND USE THEREOF AS PROTEIN KINASE INHIBITOR” (Artivila Biopharma, priority 2022, dated 2024).

How the values were obtained:
[1] = target: LRRK2 (Homo sapiens, UniProt Q5S007); assay: experiment of inhibiting LRRK2 kinase activity (ADP-Glo method); assay type: biochemical; details: Table 4
Protocol: The inhibitory effect of the compounds on the activity of LRRK2 kinase was detected by ADP-Glo method. The diluted solutions of the compounds were transfered to a 384-well plate (784075, Greiner), the plate was sealed and centrifuged at a speed of 1000 g for 1 minute. A kinase solution at 2-fold final concentration was prepared with 1×kinase buffer, 2.5 µl of the kinase solution with 2-fold final concentration was added to the wells, the plate was centrifuged at 1000 g for 30 seconds, and left at room temperature for 10 minutes. A mixed solution of ATP and kinase substrate at 2-fold final concentration was prepared with 1×kinase buffer, and 2.5 µL of mixed solution of ATP and substrate at 2-fold final concentration was added to start the reaction. The plate was centrifuged at 1000 g for 30 seconds, sealed and left at room temperature for 2 hours. 4 µL of ADP-Glo reagent was added and incubated at room temperature for 40 minutes; 8 µL kinase detection reagent was added and incubated at room temperature for another 40 minutes. The luminescence signal value was detected on Envision 2104 microplate reader. The conversion inhibition rate%=100-(compound signal value-positive control signal value)/(blank control signal value-positive control signal value)×100.
The IC50 was calculated with GraphPad 6.0 and the dose-responsive curve of the compounds was plotted as follows: y=Bottom+(Top-Bottom)/(1+10^((logic50-x)×hillslope)), where x was logarithm of inhibitor concentration; and y was % inhibition rate.

[2] = target: T1, endogenous phosphorylated LRRK2 (S935) (Homo sapiens, UniProt Q5S007); assay: detection of endogenous phosphorylated LRRK2 (S935) in A549 cells (Western blot); assay type: cell-based; details: 15 hours; for inhibition at 1 µM / inhibition at 2 µM: LRRK2 (S935) activity in A549 cells, read-out: Inhibition rate; for IC50: A549 cells, Table 11, read-out: IC50 of inhibitory activity on LRRK2 (S935) activity in A549 cells (column head: Inhibition rate)
T1 construct: Detection of endogenous phosphorylated LRRK2 (S935) in A549 cells; endogenous in cells; host or cells: A549
Protocol: Detection of endogenous phosphorylated LRRK2 (S935) in A549 cells
A549 cells were resuspended in serum-free 1640 medium at a density of 1×10^6 cells/ml, and inoculated into a 6-well plate at 1 ml/well, and cultured at 37°C and 5% CO2 for 6-8 hours. 1 microliter of compound solution in DMSO or DMSO (volume ratio of 0.1%) was added, mixed evenly, and cultivated at 37°C and 5% CO2 for 15 hours. Cells were collected, 50 microliters of RIPA III lysis solution were added to each sample to lyse cells on ice for 15 minutes, centrifuged at 4°C and 13000 rpm for 30 minutes, the supernatant was collected, the protein concentration of cell lysis solution was measured by BCA, and the protein concentrations of all samples were normalized. 5×sample loading buffer were added and kept at 95°C for 10 minutes. The content of phosphorylated S935 of endogenous LRRK2 was detected by Western blot, using antibody against phosphorylated LRRK2 (S935) (Abcam#133450). The signal intensity of phosphorylated LRRK2 (S935) was counted by Image J, the signal of phosphorylated LRRK2 (S935) in a sample was normalized by β-actin, and the data was analyzed.

T1 sequence (Q5S007 whole entry): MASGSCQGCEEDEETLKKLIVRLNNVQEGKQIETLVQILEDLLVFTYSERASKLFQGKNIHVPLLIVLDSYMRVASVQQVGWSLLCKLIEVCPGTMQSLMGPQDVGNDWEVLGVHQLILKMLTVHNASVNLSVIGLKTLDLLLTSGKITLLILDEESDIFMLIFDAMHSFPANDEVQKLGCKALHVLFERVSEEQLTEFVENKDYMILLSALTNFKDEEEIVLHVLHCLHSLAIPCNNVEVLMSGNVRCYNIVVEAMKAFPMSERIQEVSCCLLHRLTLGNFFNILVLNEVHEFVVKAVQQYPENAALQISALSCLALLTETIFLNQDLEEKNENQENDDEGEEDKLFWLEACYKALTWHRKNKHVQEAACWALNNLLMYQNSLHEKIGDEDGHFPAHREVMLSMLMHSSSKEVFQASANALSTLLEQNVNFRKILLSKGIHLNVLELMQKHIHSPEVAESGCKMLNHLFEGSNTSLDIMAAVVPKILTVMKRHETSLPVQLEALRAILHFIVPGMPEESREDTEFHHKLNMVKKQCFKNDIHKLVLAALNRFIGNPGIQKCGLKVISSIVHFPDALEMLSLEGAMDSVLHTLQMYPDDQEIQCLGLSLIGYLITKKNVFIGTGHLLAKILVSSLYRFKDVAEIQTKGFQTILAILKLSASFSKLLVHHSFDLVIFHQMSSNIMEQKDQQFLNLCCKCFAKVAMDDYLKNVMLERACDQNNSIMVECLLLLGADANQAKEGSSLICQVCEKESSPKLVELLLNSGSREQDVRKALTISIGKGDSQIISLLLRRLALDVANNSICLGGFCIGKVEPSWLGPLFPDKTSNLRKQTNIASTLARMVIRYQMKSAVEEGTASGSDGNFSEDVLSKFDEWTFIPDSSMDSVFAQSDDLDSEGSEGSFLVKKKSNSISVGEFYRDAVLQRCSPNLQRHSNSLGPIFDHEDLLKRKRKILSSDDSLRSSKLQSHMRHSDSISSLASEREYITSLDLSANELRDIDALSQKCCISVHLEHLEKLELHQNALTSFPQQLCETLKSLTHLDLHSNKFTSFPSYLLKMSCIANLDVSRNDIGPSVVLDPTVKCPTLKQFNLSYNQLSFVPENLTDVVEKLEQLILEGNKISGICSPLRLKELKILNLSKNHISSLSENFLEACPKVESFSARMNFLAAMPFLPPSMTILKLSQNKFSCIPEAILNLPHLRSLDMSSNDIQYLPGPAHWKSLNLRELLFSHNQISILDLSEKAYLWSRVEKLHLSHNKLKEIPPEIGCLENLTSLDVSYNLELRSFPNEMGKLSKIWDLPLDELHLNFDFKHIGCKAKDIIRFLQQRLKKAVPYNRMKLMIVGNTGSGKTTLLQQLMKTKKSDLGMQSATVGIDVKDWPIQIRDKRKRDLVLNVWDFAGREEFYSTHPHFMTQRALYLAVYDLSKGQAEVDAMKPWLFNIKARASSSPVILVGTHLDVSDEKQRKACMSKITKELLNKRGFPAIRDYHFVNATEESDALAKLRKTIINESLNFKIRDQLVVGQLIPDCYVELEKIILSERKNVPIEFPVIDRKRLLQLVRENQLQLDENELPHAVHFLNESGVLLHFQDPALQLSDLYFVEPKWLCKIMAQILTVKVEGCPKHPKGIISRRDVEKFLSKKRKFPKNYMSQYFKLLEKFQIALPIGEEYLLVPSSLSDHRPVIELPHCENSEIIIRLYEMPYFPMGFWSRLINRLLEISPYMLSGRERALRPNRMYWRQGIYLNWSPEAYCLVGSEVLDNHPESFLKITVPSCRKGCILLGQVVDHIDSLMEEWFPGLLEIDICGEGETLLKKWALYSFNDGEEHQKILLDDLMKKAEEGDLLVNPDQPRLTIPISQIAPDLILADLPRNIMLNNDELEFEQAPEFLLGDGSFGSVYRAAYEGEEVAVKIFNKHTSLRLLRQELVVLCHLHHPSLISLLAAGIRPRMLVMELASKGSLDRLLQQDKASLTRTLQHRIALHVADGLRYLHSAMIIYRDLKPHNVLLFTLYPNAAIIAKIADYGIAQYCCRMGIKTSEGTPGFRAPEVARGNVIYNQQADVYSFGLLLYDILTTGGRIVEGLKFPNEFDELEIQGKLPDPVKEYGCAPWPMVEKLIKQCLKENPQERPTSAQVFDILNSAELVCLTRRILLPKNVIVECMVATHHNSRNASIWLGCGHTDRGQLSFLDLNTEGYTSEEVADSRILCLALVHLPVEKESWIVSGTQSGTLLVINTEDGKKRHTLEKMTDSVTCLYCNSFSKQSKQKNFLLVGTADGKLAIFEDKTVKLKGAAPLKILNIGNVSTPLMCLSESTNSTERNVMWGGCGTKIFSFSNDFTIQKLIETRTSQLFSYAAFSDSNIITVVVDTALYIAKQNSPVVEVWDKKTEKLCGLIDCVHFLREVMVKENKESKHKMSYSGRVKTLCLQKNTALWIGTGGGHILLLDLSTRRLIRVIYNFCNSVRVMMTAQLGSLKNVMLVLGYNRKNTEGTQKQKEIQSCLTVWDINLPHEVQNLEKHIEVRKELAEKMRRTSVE
LRRK2, sequence (Q5S007 whole entry): as above

IC50 [1] [µM]	inhibition at 1 µM [2] [%]	inhibition at 2 µM [2] [%]	IC50 [2] [µM]	SMILES
0.1 to 0.5	40 to 79	–	–	CN1CCOc2ccc(Nc3ncc(F)c(O[C@H]4CC[C@@](C)(O)CC4)n3)cc2OCC1 [Example 100, (1s,4s)-4-((5-fluoro-2-((4-methyl-3,4,5,6-tetrahydro-2H-benzo[b][1,4,7]dioxazolin-9-yl)amino)pyrimidin-4-yl)oxy)-1-methylcyclohexan-1-ol]
< 0.1	> 0	–	–	CN1CCOc2ccc(Nc3ncc(Cl)c(O[C@H]4CC[C@@](C)(O)CC4)n3)cc2OCC1 [Example 102, (1s,4s)-4-((5-chloro-2-((4-methyl-3,4,5,6-tetrahydro-2H-benzo[b][1,4,7]dioxazolin-9-yl)amino)pyrimidin-4-yl)oxy)-1-methylcyclohexan-1-ol]
–	> 0	–	–	COCc1ccccc1Nc1nc(Nc2ccc3c(c2)OCCN(C)CCO3)ncc1C(F)(F)F [Example 94, N^4-(2-(methoxymethyl)phenyl)-N^2-(4-methyl-3,4,5,6-tetrahydro-2H-benzo[b][1,4,7]dioxazolin-9-yl)-5-(trifluoromethyl)pyrimidin-2,4-diamine]
–	–	> 80	–	CN1CCOCCOc2ccc(Nc3nc(NCC(C)(C)O)c4cc[nH]c4n3)cc2OCC1 [Example 90, 2-methyl-1-((2-((7-methyl-2,3,6,7,8,9-hexahydro-5H-benzo[b][1,4,7]trioxa[10]azacyclododecan-12-yl)amino)-7H-pyrrolo[2,3-d]pyrimidin-4-yl)amino)propan-2-ol]
–	40 to 79	–	–	Cc1cnc(Nc2ccc3c(c2)OCCN(C)CCO3)nc1O[C@H]1CC[C@@](C)(O)CC1 [Example 101, (1s,4s)-1-methyl-4-((5-methyl-2-((4-methyl-3,4,5,6-tetrahydro-2H-benzo[b][1,4,7]dioxazolin-9-yl)amino)pyrimidin-4-yl)oxy)cyclohexan-1-ol]
–	–	> 80	–	CN1CCOCCOc2ccc(Nc3ncc(C(F)(F)F)c(NC[C@@H]4CCO4)n3)cc2OCC1 [Example 88, (S)-N^2-(7-methyl-2,3,6,7,8,9-hexahydro-5H-benzo[b][1,4,7]trioxa[10]azacyclododecan-12-yl)-N^4-(oxetan-2-ylmethyl)-5-(trifluoromethyl)pyrimidin-2,4-diamine]
< 0.1	–	–	0.1 to 0.5	CN1CCOc2ccc(Nc3ncc(C(F)(F)F)c(O[C@H]4CC[C@@](C)(O)CC4)n3)cc2OCC1 [Example 93, (1s,4s)-1-methyl-4-((2-((4-methyl-3,4,5,6-tetrahydro-2H-benzo[b][1,4,7]dioxazolin-9-yl)amino)-5-(trifluoromethyl)pyrimidin-4-yl)oxy)cyclohexan-1-ol]
0.5 to 1	–	–	–	CNc1cc(O[C@H]2CC[C@@](C)(O)CC2)nc(Nc2ccc3c(c2)OCCN(C)CCO3)n1 [Example 108, (1s,4s)-1-methyl-4-((2-((4-methyl-3,4,5,6-tetrahydro-2H-benzo[b][1,4,7]dioxazolin-9-yl)amino)-6-(methylamino)pyrimidin-4-yl)oxy)cyclohexan-1-ol]
0.1 to 0.5	–	–	< 0.1	CN1CCOCCOc2ccc(Nc3ncc(F)c(O[C@H]4CC[C@@](C)(O)CC4)n3)cc2OCC1 [Example 103, (1s,4s)-4-((5-fluoro-2-((7-methyl-2,3,6,7,8,9-hexahydro-5H-benzo[b][1,4,7]trioxa[10]azacyclododecan-12-yl)amino)pyrimidin-4-yl)oxy)-1-methylcyclohexan-1-ol]
< 0.1	–	–	–	CN1CCOCCOc2ccc(Nc3ncc(Cl)c(O[C@H]4CC[C@@](C)(O)CC4)n3)cc2OCC1 [Example 104, (1s,4s)-4-((5-chloro-2-((7-methyl-2,3,6,7,8,9-hexahydro-5H-benzo[b][1,4,7]trioxa[10]azacyclododecan-12-yl)amino)pyrimidin-4-yl)oxy)-1-methylcyclohexan-1-ol]
–	–	> 80	–	CN1CCOc2ccc(Nc3ncc(C(F)(F)F)c(NCC(C)(C)O)n3)cc2OCC1 [Example 8, 2-methyl-1-((2-((4-methyl-3,4,5,6-tetrahydro-2H-benzo[b][1,4,7]dioxazolin-9-yl)amino)-5-(trifluoromethyl)pyrimidin-4-yl)amino)propan-2-ol]
< 0.1	–	–	< 0.1	CN1CCOc2ccc(Nc3ncc(C(F)(F)F)c(Nc4ccccc4)n3)cc2OCC1 [Example 91, N^2-(4-methyl-3,4,5,6-tetrahydro-2H-benzo[b][1,4,7]dioxazolin-9-yl)-N^4-phenyl-5-(trifluoromethyl)pyrimidin-2,4-diamine]
< 0.1	–	40 to 79	–	CN1CCOc2ccc(Nc3ncc(C(F)(F)F)c(NC[C@@H]4CCO4)n3)cc2OCC1 [Example 92, (S)-N^2-(4-methyl-3,4,5,6-tetrahydro-2H-benzo[b][1,4,7]dioxazolin-9-yl)-N^4-(oxetan-2-ylmethyl)-5-(trifluoromethyl)pyrimidin-2,4-diamine]
–	> 0	–	–	CN1CCOc2ccc(Nc3ncc(C(F)(F)F)c(NCC4(C#N)CC4)n3)cc2OCC1 [Example 96, 1-(((2-((4-methyl-3,4,5,6-tetrahydro-2H-benzo[b][1,4,7]dioxazolin-9-yl)amino)-5-(trifluoromethyl)pyrimidin-4-yl)amino)methyl)cyclopropan-1-carbonitrile]
–	–	40 to 79	–	CN1CCOCCOc2ccc(Nc3ncc(C(F)(F)F)c(NCCS(C)(=O)=O)n3)cc2OCC1 [Example 89, N^2-(7-methyl-2,3,6,7,8,9-hexahydro-5H-benzo[b][1,4,7]trioxa[10]azacyclododecyl-12-yl)-N^4-(2-(methylsulfonyl)ethyl)-5-(trifluoromethyl)pyrimidin-2,4-diamine]
